Assay results reported in ChEMBL document CHEMBL5104211, “Design and synthesis of bile acid derivatives and their activity against colon cancer” (RSC Med Chem, 2022).
pIC50: −log10 of the molar value. Activity calls are given as the source filed them. The rule behind the calls is not given here.

Key:
RKO = assay: Anticancer activity against human RKO cells assessed as inhibition of cell proliferation by MTT assay; assay type: functional, cell-based
SK-HEP1 = assay: Anticancer activity against human SK-HEP1 cells assessed as inhibition of cell proliferation by MTT assay; assay type: functional, cell-based
A549 = assay: Anticancer activity against human A549 cells assessed as inhibition of cell proliferation by MTT assay; assay type: functional, cell-based
[1] = Cytotoxicity against human WI-38 cells assessed as inhibition of cell proliferation by MTT assay; assay type: toxicity, cell-based
SW480 = assay: Anticancer activity against human SW480 cells assessed as inhibition of cell proliferation by MTT assay; assay type: functional, cell-based
HT-29 = assay: Anticancer activity against human HT-29 cells assessed as inhibition of cell proliferation by MTT assay; assay type: functional, cell-based
RAW264.7 [2] = assay: Anti-inflammatory activity against mouse RAW264.7 cells assessed as inhibition of LPS-induced NO production at 25 micromol/L incubated for 24 hrs in presence of LPS by Griess reagent-based assay; assay type: functional; details: RAW264.7, 24 h, dose 25 µmol/L
RAW264.7 [3] = assay: Anti-inflammatory activity against mouse RAW264.7 cells assessed as downregulation of LPS-induced TNF-alpha level at 10 to 25 micromol/L incubated for 24 hrs in presence of LPS by ELISA; assay type: functional, cell-based; details: dose 10-25 µmol/L, DDE = dose-dependent effect
HCT-116 [4] = assay: Anticancer activity against human HCT-116 cells assessed as inhibition of cell proliferation by MTT assay; assay type: functional, cell-based
MGC-803 = assay: Anticancer activity against human MGC-803 cells assessed as inhibition of cell proliferation by MTT assay; assay type: functional, cell-based
LoVo = assay: Anticancer activity against human LoVo cells assessed as inhibition of cell proliferation by MTT assay; assay type: functional, cell-based
RAW264.7 [5] = assay: Anti-inflammatory activity against mouse RAW264.7 cells assessed as inhibition of LPS-induced NO production at 10 micromol/L incubated for 24 hrs in presence of LPS by Griess reagent-based assay; assay type: functional; details: RAW264.7, 24 h, dose 10 µmol/L
Huh-7 = assay: Anticancer activity against human Huh-7 cells assessed as inhibition of cell proliferation by MTT assay; assay type: functional, cell-based
RAW264.7 [6] = assay: Anti-inflammatory activity against mouse RAW264.7 cells assessed as inhibition of LPS-induced NO production incubated for 24 hrs in presence of LPS by Griess reagent-based assay; assay type: functional, cell-based; details: RAW264.7, 24 h
HCT-116 [7] = assay: Induction of apoptosis in human HCT-116 cells assessed as viable cells at 30 micromol/L incubated for 48 hrs by annexin V-FITC and propidium iodide staining based flow cytometry analysis (reference value: 89.29%); assay type: functional; details: HCT-116, 48 h, dose 30 µmol/L, read-out: Activity
HCT-116 [8] = assay: Induction of apoptosis in human HCT-116 cells assessed as apoptotic body formation at 30 micromol/L incubated for 48 hrs by Giemsa staining based fluorescence microscopy; assay type: functional, cell-based; details: dose 30.0 µmol/L
HCT-116 [9] = assay: Anticancer activity against human HCT-116 cells assessed as inhibition of cell proliferation at 25 micromol/L incubated for 24 hrs by MTT assay; assay type: functional; details: HCT-116, 24 h, dose 25 µmol/L
HCT-116 [10] = assay: Induction of mitochondrial membrane potential loss in human HCT-116 cells and measured after 48 hrs by TRME staining based flow cytometric analysis (reference value: 97.52%); assay type: functional
HCT-116 [11] = assay: Anticancer activity against human HCT-116 cells assessed as inhibition of cell proliferation at 20 to 40 micromol/L incubated for 24 to 72 hrs by MTT assay; assay type: functional, cell-based; details: dose 20-40 µmol/L, time 24-72 hrs, TDE = time-dependent effect
HCT-116 [12] = assay: […] activity in human HCT-116 cells assessed as upregulation of cleaved caspase-3 level at 30 micromol/L incubated for 48 hrs by Western blot analysis; assay type: functional, cell-based; details: dose 30.0 µmol/L
HCT-116 [13] = assay: Anticancer activity against human HCT-116 cells assessed as inhibition of cell proliferation at 30 micromol/L incubated for 24 hrs by MTT assay; assay type: functional; details: HCT-116, 24 h, dose 30 µmol/L
HCT-116 [14] = assay: Anticancer activity against human HCT-116 cells assessed as decrease in number of colonies at 25 micromol/L and measured after 48 hrs by crystal violet dye based colony formation assay; assay type: functional, cell-based; details: dose 25.0 µmol/L
HCT-116 [15] = assay: Anticancer activity against human HCT-116 cells assessed as inhibition of cell proliferation at 5 to 50 micromol/L incubated for 24 hrs by MTT assay; assay type: functional, cell-based; details: dose 5-50 µmol/L, DDE = dose-dependent effect
HCT-116 [16] = assay: Induction of apoptosis in human HCT-116 cells assessed as unclear cell rupture edges at 30 micromol/L incubated for 48 hrs by Giemsa staining based fluorescence microscopy; assay type: functional; details: dose 30.0 µmol/L
HCT-116 [17] = assay: Induction of apoptosis in human HCT-116 cells assessed as necrotic cells at 30 micromol/L incubated for 48 hrs by annexin V-FITC and propidium iodide staining based flow cytometry analysis (reference value: 0.88%); assay type: functional; details: dose 30 µmol/L, at 30 µM
HCT-116 [18] = assay: Inhibition of cell invasion in human HCT-116 cells at 20 micromol/L and measured after 24 hrs by crystal violet staining based transwell assay; assay type: functional; details: HCT-116, 24 h, dose 20 µmol/L
HCT-116 [19] = assay: Induction of apoptosis in human HCT-116 cells assessed as early apoptotic cells at 30 micromol/L incubated for 48 hrs by annexin V-FITC and propidium iodide staining based flow cytometry analysis (reference value: 2.69%); assay type: functional; details: dose 30 µmol/L, at 30 µM
HCT-116 [20] = assay: Induction of apoptosis in human HCT-116 cells assessed as late apoptotic cells at 30 micromol/L incubated for 48 hrs by annexin V-FITC and propidium iodide staining based flow cytometry analysis (reference value: 7.13%); assay type: functional; details: dose 30 µmol/L, at 30 µM
HCT-116 [21] = assay: Induction of apoptosis in human HCT-116 cells assessed as retraction of the nucleus at 30 micromol/L incubated for 48 hrs by Giemsa staining based fluorescence microscopy; assay type: functional, cell-based; details: dose 30.0 µmol/L
HCT-116 [22] = assay: Induction of cell cycle arrest in human HCT-116 cells assessed as accumulation G2/M phase at 25 micromol/L and measured after 48 hrs by propidium iodide staining based flow cytometry analysis (Rvb= 11%); assay type: functional; details: dose 25 µmol/L, at 25 µM
HCT-116 [23] = assay: […] activity in human HCT-116 cells assessed as downregulation of Bcl-2 level at 30 micromol/L incubated for 48 hrs by Western blot analysis; assay type: functional, cell-based; details: dose 30.0 µmol/L
HCT-116 [24] = assay: Induction of ROS generation in human HCT-116 cells assessed as increase in intracellular ROS level incubated for 48 hrs by DCFH-DA staining based flow cytometric analysis (Rvb=73.65%); assay type: functional
HCT-116 [25] = assay: Inhibition of cell migration in human HCT-116 cells at 20 micromol/L and measured after 24 hrs by crystal violet staining based transwell assay; assay type: functional; details: dose 20.0 µmol/L
HCT-116 [26] = assay: Induction of apoptosis in human HCT-116 cells assessed as retraction of the cytoplasm at 30 micromol/L incubated for 48 hrs by Giemsa staining based fluorescence microscopy; assay type: functional, cell-based; details: dose 30.0 µmol/L
HCT-116 [27] = assay: Induction of apoptosis in human HCT-116 cells assessed as contraction of cell volume at 30 micromol/L incubated for 48 hrs by Giemsa staining based fluorescence microscopy; assay type: functional; details: dose 30.0 µmol/L
HCT-116 [28] = assay: Anticancer activity against human HCT-116 cells assessed as decrease in size of colonies at 25 micromol/L and measured after 48 hrs by crystal violet dye based colony formation assay; assay type: functional, cell-based; details: dose 25.0 µmol/L
HCT-116 [29] = assay: Anticancer activity in human HCT-116 cells assessed as downregulation of phosphorylated STAT3 level at 30 micromol/L incubated for 48 hrs by Western blot analysis; assay type: functional, cell-based; details: dose 30.0 µmol/L
RAW264.7 [30] = assay: Anti-inflammatory activity against mouse RAW264.7 cells assessed as downregulation of LPS-induced TNF-alpha level at 25 micromol/L incubated for 24 hrs in presence of LPS by ELISA; assay type: functional; details: dose 25 µmol/L, at 25 µM

C[C@H](CCC(=O)OCc1cc(O)cc(O)c1)[C@H]1CC[C@H]2[C@@H]3[C@H](O)C[C@@H]4C[C@H](O)CC[C@]4(C)[C@H]3CC[C@]12C
pIC50 (RKO): 4.11
pIC50 (SK-HEP1): 3.81
pIC50 (A549): 3.90
pIC50 [1]: < 3.70
pIC50 (SW480): 4.16
pIC50 (HT-29): 4.39
inhibition at 25 µM (RAW264.7 [2]): 73.2%
Activity (RAW264.7 [3]): Dde
pIC50 (HCT-116 [4]): 4.19
pIC50 (MGC-803): 4.09
pIC50 (LoVo): 4.25
inhibition at 10 µM (RAW264.7 [5]): 35.5%
pIC50 (Huh-7): 3.94
pIC50 (RAW264.7 [6]): 4.79

COC(=O)[C@H](CCSC)NC(=O)CC[C@@H](C)[C@H]1CC[C@H]2[C@@H]3[C@H](O)C[C@@H]4C[C@H](O)CC[C@]4(C)[C@H]3CC[C@]12C
pIC50 (RKO): 4.56
pIC50 (SK-HEP1): 4.41
viability at 30 µM (HCT-116 [7]): 43.1%
pIC50 (A549): 4.10
Activity (HCT-116 [8]): Active
inhibition at 25 µM (HCT-116 [9]): 30%
pIC50 [1]: < 3.30
Activity (HCT-116 [10]): 79.54%
pIC50 (SW480): 4.63
pIC50 (HT-29): 4.56
inhibition (HCT-116 [11]): Tde
Activity (HCT-116 [12]): Active
inhibition at 30 µM (HCT-116 [13]): 70%
Activity (HCT-116 [14]): Active
inhibition (HCT-116 [15]): Dde
Activity (HCT-116 [16]): Active
Activity (HCT-116 [17]): 0.71%
pIC50 (HCT-116 [4]): 4.56
pIC50 (MGC-803): 4.50
inhibition at 20 µM (HCT-116 [18]): 50%
Activity (HCT-116 [19]): 3.86%
pIC50 (LoVo): 4.64
Activity (HCT-116 [20]): 52.35%
Activity (HCT-116 [21]): Active
Activity (HCT-116 [22]): 72.91%
pIC50 (Huh-7): 4.17
Activity (HCT-116 [23]): Active
Activity (HCT-116 [24]): 86.51%
inhibition (HCT-116 [25]): Active
Activity (HCT-116 [26]): Active
Activity (HCT-116 [27]): Active
Activity (HCT-116 [28]): Active
Activity (HCT-116 [29]): Active

C[C@H](CCC(=O)OCc1cc(O)cc(O)c1)[C@H]1CC[C@H]2[C@@H]3CC[C@@H]4C[C@H](O)CC[C@]4(C)[C@H]3CC[C@]12C
pIC50 (RKO): 4.37
pIC50 (SK-HEP1): < 3.70
pIC50 (A549): 3.91
pIC50 [1]: < 3.70
pIC50 (SW480): 3.87
pIC50 (HT-29): 4.34
inhibition at 25 µM (RAW264.7 [2]): 82.1%
Activity (RAW264.7 [30]): 50%
pIC50 (HCT-116 [4]): 4.30
pIC50 (MGC-803): 4.08
pIC50 (LoVo): 4.22
inhibition at 10 µM (RAW264.7 [5]): 49%
pIC50 (Huh-7): < 3.70
pIC50 (RAW264.7 [6]): 4.92
